Data taken from PubChem BioAssay AID2060910 (Molecular Pharmacology Branch, DTP, NCI, 2025).
Blank lines part the entries; values can stand above or below the compound they belong to.

Tested on: 242566-281-R-J2-PDC complex spheroid viability
Experiment: Anticancer human tumor 242566-281-R-J2-PDC patient-derived pancreatic carcinoma cell line growth inhibition [RAS]
Conditions: for IC50: curve of first compound; for viability, T/C: stronger effect = lower value
Outline: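 Tumour cells grown as complex spheroids with HUVEC endothelial cells and mesenchymal stem cells, treated with RAS pathway inhibitor combinations. Each agent spans half-log steps from near clinical Cmax, or 10 microM where Cmax is unknown.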

[1] = second compound 0.000949 µM, first compound 0.0316 µM
[2] = second compound 0.000949 µM, first compound 0.1 µM
[3] = second compound 0.000949 µM, first compound 0.316 µM
[4] = second compound 0.000949 µM, first compound 1 µM
[5] = second compound 0.003 µM, first compound 0.0316 µM
[6] = second compound 0.003 µM, first compound 0.1 µM
[7] = second compound 0.003 µM, first compound 0.316 µM
[8] = second compound 0.003 µM, first compound 1 µM
[9] = second compound 0.00949 µM, first compound 0.0316 µM
[10] = second compound 0.00949 µM, first compound 0.1 µM
[11] = second compound 0.00949 µM, first compound 0.316 µM
[12] = second compound 0.00949 µM, first compound 1 µM
[13] = second compound 0.03 µM, first compound 0.0316 µM
[14] = second compound 0.03 µM, first compound 0.1 µM
[15] = second compound 0.03 µM, first compound 0.316 µM
[16] = second compound 0.03 µM, first compound 1 µM
[17] = second compound 0.0949 µM, first compound 0.0316 µM
[18] = second compound 0.0949 µM, first compound 0.1 µM
[19] = second compound 0.0949 µM, first compound 0.316 µM
[20] = second compound 0.0949 µM, first compound 1 µM
[21] = second compound 0.3 µM, first compound 0.0316 µM
[22] = second compound 0.3 µM, first compound 0.1 µM
[23] = second compound 0.3 µM, first compound 0.316 µM
[24] = second compound 0.3 µM, first compound 1 µM
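Also: spheroids exposed to compound for 7 days before readout.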
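For viability, T/C in this document: 100% = DMSO vehicle control wells.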

IC50 (second compound 0.000949 µM): 40.1 nM
IC50 (second compound 0.003 µM): 22.8 nM
IC50 (second compound 0.00949 µM): < 3.16 nM
IC50 (second compound 0.03 µM): < 3.16 nM
IC50 (second compound 0.0949 µM): < 3.16 nM
IC50 (second compound 0.3 µM): < 3.16 nM
SMILES: Nc1ccn(C2OC(CO)C(O)C2(F)F)c(=O)n1 (centres undefined) + CCn1c(-c2cc(N3CCN(C)CC3)cnc2C(C)OC)c2c3cc(ccc31)-c1csc(n1)CC(NC(=O)C1CC1C)C(=O)N1CCCC(N1)C(=O)OCC(C)(C)C2
viability, T/C (second compound 0.000949 µM, first compound 0.00316 µM): 94.2%
viability, T/C (second compound 0.000949 µM, first compound 0.01 µM): 87.7%
viability, T/C [1]: 46.2%
viability, T/C [2]: 36.5%
viability, T/C [3]: 20.9%
viability, T/C [4]: 10.3%
viability, T/C (second compound 0.003 µM, first compound 0.00316 µM): 78.2%
viability, T/C (second compound 0.003 µM, first compound 0.01 µM): 57.9%
viability, T/C [5]: 43.5%
viability, T/C [6]: 35.3%
viability, T/C [7]: 24.3%
viability, T/C [8]: 10.9%
viability, T/C (second compound 0.00949 µM, first compound 0.00316 µM): 50.5%
viability, T/C (second compound 0.00949 µM, first compound 0.01 µM): 36.2%
viability, T/C [9]: 38.3%
viability, T/C [10]: 28.5%
viability, T/C [11]: 20.7%
viability, T/C [12]: 16.6%
viability, T/C (second compound 0.03 µM, first compound 0.00316 µM): 30.6%
viability, T/C (second compound 0.03 µM, first compound 0.01 µM): 27.1%
viability, T/C [13]: 25.5%
viability, T/C [14]: 20.9%
viability, T/C [15]: 16.9%
viability, T/C [16]: 16.7%
viability, T/C (second compound 0.0949 µM, first compound 0.00316 µM): 22.3%
viability, T/C (second compound 0.0949 µM, first compound 0.01 µM): 21.4%
viability, T/C [17]: 21.3%
viability, T/C [18]: 19.2%
viability, T/C [19]: 11.7%
viability, T/C [20]: 13.9%
viability, T/C (second compound 0.3 µM, first compound 0.00316 µM): 19.7%
viability, T/C (second compound 0.3 µM, first compound 0.01 µM): 18.2%
viability, T/C [21]: 18.5%
viability, T/C [22]: 14.5%
viability, T/C [23]: 13.1%
viability, T/C [24]: 14.4%

IC50 (second compound 0.000949 µM): 918 nM
IC50 (second compound 0.003 µM): 1110 nM
IC50 (second compound 0.00949 µM): 1050 nM
IC50 (second compound 0.03 µM): 963 nM
IC50 (second compound 0.0949 µM): 872 nM
IC50 (second compound 0.3 µM): 329 nM
SMILES: CC(Nc1ccc2c(c1)OCCn1cc(N3C(=O)OCC3C(F)F)nc1-2)C(N)=O (centres undefined) + CCn1c(-c2cccnc2C(C)OC)c2c3cc(ccc31)N1CCOC(CC(NC(=O)C(C(C)C)N(C)C(=O)C3(F)CCN(C(=O)C#CC(C)(C)N(C)C)CC3)C(=O)N3CCCC(N3)C(=O)OCC(C)(C)C2)C1
viability, T/C [1]: 108%
viability, T/C [2]: 81.6%
viability, T/C [3]: 54.7%
viability, T/C [4]: 55%
viability, T/C (second compound 0.000949 µM, first compound 3.16 µM): 36.5%
viability, T/C (second compound 0.000949 µM, first compound 10 µM): 17.4%
viability, T/C [5]: 91.4%
viability, T/C [6]: 79.4%
viability, T/C [7]: 64.8%
viability, T/C [8]: 51.2%
viability, T/C (second compound 0.003 µM, first compound 3.16 µM): 37.7%
viability, T/C (second compound 0.003 µM, first compound 10 µM): 18.1%
viability, T/C [9]: 101%
viability, T/C [10]: 79.8%
viability, T/C [11]: 70%
viability, T/C [12]: 54%
viability, T/C (second compound 0.00949 µM, first compound 3.16 µM): 29.9%
viability, T/C (second compound 0.00949 µM, first compound 10 µM): 20.8%
viability, T/C [13]: 85.4%
viability, T/C [14]: 83%
viability, T/C [15]: 68.8%
viability, T/C [16]: 52.3%
viability, T/C (second compound 0.03 µM, first compound 3.16 µM): 26.3%
viability, T/C (second compound 0.03 µM, first compound 10 µM): 22.9%
viability, T/C [17]: 88.8%
viability, T/C [18]: 77.9%
viability, T/C [19]: 69.9%
viability, T/C [20]: 48.6%
viability, T/C (second compound 0.0949 µM, first compound 3.16 µM): 25.5%
viability, T/C (second compound 0.0949 µM, first compound 10 µM): 17.7%
viability, T/C [21]: 77.5%
viability, T/C [22]: 67.5%
viability, T/C [23]: 50.4%
viability, T/C [24]: 33.1%
viability, T/C (second compound 0.3 µM, first compound 3.16 µM): 22.7%
viability, T/C (second compound 0.3 µM, first compound 10 µM): 16.2%
